The subject of series [1] is zebrafish Trpa1a (zTrpa1a). The series can be described thus: Rescue experiment, Trpa1b−/− embryos expressing zTrpa1a in Rohon-beard neurons. The series is classed as in vivo. To be noted: 20 μM, motion within 5 s after 1 s WL3. How it is done: (§1) For Trpa1b ohnolog and paralog rescue experiments, Trpa1b^−/− embryos were injected with ngn1:zTrpa1b-2A-mCherry (partial plasmid sequence in SEQ ID NO:5), ngn1:zTrpa1a-2A-mCherry, ngn1:hTRPA1-2A-EGFP or ngn1:mTRPA1-2A-mCherry at the 1-cell stage for mosaic Rohon-beard neuron expression. Embryos were screened at 2 dpf for fluorescent expression in Rohon-beard neurons, incubated with 20 μM TRPswitch-B for 1 hr and decapitated posterior to the eyes right before experiments. NA 0.25 5× objective and 1 s WL3 light illumination was used.
(§2) To test the potential cross activity of TRPswitch-B on the zebrafish ohnolog Trpa1a and on mammalian orthologs, zebrafish Trpa1a, mouse TRPA1 or human TRPA1 were transiently re-expressed in the Rohon-beard neurons of mutant Trpa1b^−/− zebrafish and performed light-induced motion response experiments in the presence of TRPswitch-B. Rescue experiments were performed in Trpa1b^−/− zebrafish with transient mosaic re-expression of zebrafish Trpa1b (zTrpa1b), zebrafish Trpa1a (zTrpa1a), mouse TRPA1 (mTRPA1) or human TRPA1 (hTRAP1) in Rohon-beard neurons. Embryos were pre-treated with 20 μM TRPswitch-B and decapitated right before light stimulation to eliminate the light response mediated by the retina (Table 5). […]

For series [2], the system named is zebrafish Trpa1b. Nature of the series: Whole cell current in CCD-18Co cells transfected with zebrafish Trpa1b. The series is classed as cell-based. To be noted: CCD-18Co transfected with zTrpa1b. The protocol:
Immortalized HEK293T cells or human colonic fibroblast cells (CCD-18Co; ATCC) were used. HEK293T cells were plated on […] cover slips and transiently transfected with 10 μg of Trpa1b plasmid (pCMV-zTrpa1b-FLAG) (SEQ ID NO:3) and 5 μg of mNeonGreen cDNA (Allele Biotechnology), then grown in a 6 cm plate for 24-48 h. CCD-18Co were cultured in Eagle's minimal essential medium with 10% FBS, 1× penicillin and streptomycin. CCD-18Co cells were plated on 12 mm cover slips and transiently transfected with 5 μg of zTrpa1b plasmid (pCMV-zTrpa1b-FLAG) together with 5 μg of mNeonGreen cDNA (Allele Biotechnology), then grown in a […] plate for 48-72 h. After this time, the cover slips were transferred to a recording chamber containing an extracellular solution composed of 145 mM sodium gluconate, 4 mM KCl, 3 mM MgCl2, 10 mM D-glucose, 10 mM HEPES; pH 7.4 adjusted with NaOH. The internal solution contained 122 mM cesium methane sulfonate, 1.8 mM MgCl2, 9 mM EGTA, 14 mM creatine phosphate (sodium salt), 4 mM Mg-ATP, 0.3 mM Na-GTP, 10 mM HEPES, pH 7.2 adjusted with CsOH. […] Whole cell currents were measured on an Axopatch 200B amplifier (Molecular De-vices) under the control of pClamp software. […] Basal Trpa1b whole cell currents were measured with a ramp protocol (˜100 to +100 mV, at a holding potential of 0 mV). […] The p values were calculated using a two-tailed, paired Student's t-test.

For another series, the system named is WT embryos. The series can be described thus: Rescue experiment, WT embryos. The following applies: 20 μM, motion within 5 s after 1 s WL3. Format: in vivo, zebrafish. The protocol:
as §1, §2

The nature of series [3]: UV-Vis absorbance, E/Z isomerization with violet and green light. The series is classed as physicochemical. To be noted: UV-Vis absorbance in DMSO. The protocol: Compounds were dissolved in DMSO at 250 μM and 260 μM for TRPswitch-A and TRPswitch-B, respectively and UV-Vis absorbance was measured using a NanoDrop 1000 (Thermo Scientific).
The subject of series [4] is zebrafish Trpa1b. Nature of the series: Whole-cell patch-clamp of HEK293T cells expressing zebrafish Trpa1b. Format: cell-based. The protocol:
Immortalized HEK293T cells or human colonic fibroblast cells (CCD-18Co; ATCC) were used. HEK293T cells were plated on […] cover slips and transiently transfected with 10 μg of Trpa1b plasmid (pCMV-zTrpa1b-FLAG) (SEQ ID NO:3) and 5 μg of mNeonGreen cDNA (Allele Biotechnology), then grown in a 6 cm plate for 24-48 h. CCD-18Co were cultured in Eagle's minimal essential medium with 10% FBS, 1× penicillin and streptomycin. CCD-18Co cells were plated on 12 mm cover slips and transiently transfected with 5 μg of zTrpa1b plasmid (pCMV-zTrpa1b-FLAG) together with 5 μg of mNeonGreen cDNA (Allele Biotechnology), then grown in a […] plate for 48-72 h. After this time, the cover slips were transferred to a recording chamber containing an extracellular solution composed of 145 mM sodium gluconate, 4 mM KCl, 3 mM MgCl2, 10 mM D-glucose, 10 mM HEPES; pH 7.4 adjusted with NaOH. The internal solution contained 122 mM cesium methane sulfonate, 1.8 mM MgCl2, 9 mM EGTA, 14 mM creatine phosphate (sodium salt), 4 mM Mg-ATP, 0.3 mM Na-GTP, 10 mM HEPES, pH 7.2 adjusted with CsOH. Borosilicate glass pipettes with a resistance of 3-5 MO were used. Whole cell currents were measured on an Axopatch 200B amplifier (Molecular De-vices) under the control of pClamp software. Signals were digitized through a Digidata1550B interface (Molecular Devices). Currents were filtered at 5 kHz (lowpass, Bessel) and sampled at 10 kHz prior to analysis with Clampfit software (Molecular Devices). All the plots and statistical tests were performed on Excel (Microsoft corp.). Basal Trpa1b whole cell currents were measured with a ramp protocol (˜100 to +100 mV, at a holding potential of 0 mV). Photoactive compounds were perfused into the recording chamber and a fluorescent light generated by mercury vapor short arc (U-HGLGPS, OLYMPUS) filtered through an ET-ECFP 434/17 nm filter and through a ET-mCherry 560 nm filter (Chroma Technology) was switched “on” and “off” for 10 s. All experiments were performed at room temperature. The p values were calculated using a two-tailed, paired Student's t-test.
Background: The patch-clamp technique gives a direct electrical read-out from membranes.

Series [5] deals with larvae that lack exogenous expression of Trpa1b in cardiomyocytes. Nature of the series: Heartbeat experiment in larvae that lack exogenous expression of Trpa1b in cardiomyocytes. To be noted: no exogenous Trpa1b in cardiomyocytes. The series is classed as in vivo, zebrafish.
Another series deals with T1, mouse TRPA1 (mTRPA1) (Mus musculus, UniProt Q8BLA8).
T1 construct: 2A peptide (remnant stays on the channel) (C); mCherry (separated at the 2A site) (C, cleaved yes); expressed in transfected cells; host or cells: Rohon-Beard neurons of Trpa1b−/− zebrafish embryos, in vivo
T1 sequence (Q8BLA8 whole entry): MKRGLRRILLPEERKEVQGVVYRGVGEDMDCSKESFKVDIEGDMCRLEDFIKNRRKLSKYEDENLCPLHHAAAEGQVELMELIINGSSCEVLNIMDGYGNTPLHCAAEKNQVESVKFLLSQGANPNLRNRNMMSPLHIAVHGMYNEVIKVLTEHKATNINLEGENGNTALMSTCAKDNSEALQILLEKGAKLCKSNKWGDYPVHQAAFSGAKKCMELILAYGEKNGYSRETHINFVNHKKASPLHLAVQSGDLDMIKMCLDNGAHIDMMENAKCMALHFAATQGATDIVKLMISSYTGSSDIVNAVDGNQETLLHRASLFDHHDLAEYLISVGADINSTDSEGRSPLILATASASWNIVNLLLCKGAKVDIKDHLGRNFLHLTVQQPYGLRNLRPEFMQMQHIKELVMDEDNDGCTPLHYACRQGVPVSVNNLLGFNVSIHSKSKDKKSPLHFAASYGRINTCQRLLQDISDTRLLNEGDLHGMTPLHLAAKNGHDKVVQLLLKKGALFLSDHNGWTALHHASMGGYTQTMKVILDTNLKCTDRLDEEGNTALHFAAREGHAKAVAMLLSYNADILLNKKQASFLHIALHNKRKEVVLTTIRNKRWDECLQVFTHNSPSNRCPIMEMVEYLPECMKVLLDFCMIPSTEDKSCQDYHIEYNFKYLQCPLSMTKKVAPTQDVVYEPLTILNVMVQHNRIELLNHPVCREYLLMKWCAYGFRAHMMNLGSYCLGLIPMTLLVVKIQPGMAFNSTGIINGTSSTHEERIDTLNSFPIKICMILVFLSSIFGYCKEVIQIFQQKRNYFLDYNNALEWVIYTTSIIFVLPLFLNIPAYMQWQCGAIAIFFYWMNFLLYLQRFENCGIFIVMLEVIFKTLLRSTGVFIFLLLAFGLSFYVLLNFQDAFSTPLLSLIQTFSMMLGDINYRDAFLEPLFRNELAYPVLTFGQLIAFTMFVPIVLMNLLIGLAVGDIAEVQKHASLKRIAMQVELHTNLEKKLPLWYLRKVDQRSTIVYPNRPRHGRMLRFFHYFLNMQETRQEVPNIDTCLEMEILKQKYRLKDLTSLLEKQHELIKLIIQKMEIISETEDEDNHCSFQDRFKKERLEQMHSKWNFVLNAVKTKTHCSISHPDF
The series can be described thus: Rescue experiment, Trpa1b−/− embryos expressing mTRPA1 in Rohon-beard neurons. The following applies: 20 μM, motion within 5 s after 1 s WL3. The series is classed as in vivo, zebrafish. The protocol: as §1, §2

The nature of series [6]: Z→E thermal isomerisation kinetics. Format: physicochemical. How it is done: In order to determine the Z→E thermal isomerisation kinetics in DMSO-d6 a ˜20 mM solution of the relevant compound was irradiated using a Luzchem LZC-4V photoreactor fitted with 12×8 W LZC-420 lamps (420 nm peak emission) until no further change was observable by ^1H NMR. For 30% water:DMSO samples, a 15 μM solution of the relevant compound was irradiated in a quartz cuvette using 365 nm LEDs (3×800 mW Nichia NCSU276A) until no further change was observed by UV-Vis spectroscopy. Compounds (˜25 μM solutions in DMSO) were treated analogously. In the case of compounds studied by NMR, the change in Z-isomer percentage was followed as a function of time through integration of the relevant peaks. […]
For data collected via ^1H NMR, the natural log of the Z isomer concentration was plotted against time to yield a straight line implying first order kinetics. The gradient of this line was used to determine the rate constant for Z→E conversion from which the thermal half-life could be calculated:
For data collected via UV-Vis Spectroscopy, absorbance data at a fixed wavelength was fitted using the following, first order equation: […]
where k represents the rate constant; A∞, A0 and At are the absorbances of the pure E-state, Z-rich state, and time t, respectively. […]

Series [7] has as its system zebrafish Trpa1b (zTrpa1b). The series can be described thus: Rescue experiment, Trpa1b−/− embryos re-expressing zTrpa1b in Rohon-beard neurons. Format: in vivo. To be noted: 20 μM, motion within 5 s after 1 s WL3. The protocol:
as §1, §2

With `Cc1nn(C)c(C)c1/N=N/c1ccc(NC(=O)c2cccs2)cc1NC(=O)c1cccs1` [Compound 9, (E)-N,N′-(4-((1,3,5-trimethyl-1H-pyrazol-4-yl)diazenyl)-1,3-phenylene)bis(thiophene-2-carboxamide)], the “% response” value in series [1] turned out to be 0%; in the series on WT embryos, 65%; at mouse TRPA1 (mTRPA1) it was 0%; in series [7], 38.5%. Moreover, the “photocurrent on green light” value with zebrafish Trpa1b [2] is on record as “green light-induced decrease in photocurrent”. Also, the “photocurrent on violet light” value with zebrafish Trpa1b [2] is given as “violet light-induced photocurrent”. Moreover, the “E/Z photoswitching with violet and green light” value was “quantitative photoswitching in both directions” in series [3] and “complete return” in series [3] (listed as TRPswitch-B). In addition, the “current density fold increment after subsequent pulse of green light” value in the series on zebrafish Trpa1b [4] (+100 mV) is on record as 1.26±0.33 fold; in the series with zebrafish Trpa1b [4] (−100 mV) it was 1.41±0.38 fold. The “current density fold increment upon violet light illumination” value with zebrafish Trpa1b [4] (+100 mV) is listed as 2.12±0.47 fold; with zebrafish Trpa1b [4] (−100 mV) it was 2.27±0.38 fold. Besides, the “heartbeat switching with light illumination” value in series [5] was “negative results”. The “thermal half-lives” value in series [6] was “long thermal half-lives”.

Values taken from patent US20220280644A1, “"TRPswitch" - A STEP FUNCTION CHEMO-OPTOGENETIC LIGAND” (UNIVERSITY OF UTAH RESEARCH FOUNDATION, priority 2019, published 2022).
